Test: GHS categories as the set defines them, by LD50: 1 up to 5, 2 up to 50, 3 up to 300, 4 up to 2000, 5 above 2000 mg/kg
Conditions: rat; in vivo; po
Text: […]The data set underlying the modeling effort for this project was initially compiled by NICEATM and U.S. EPA’s CCTE. Briefly, LD50 data were collected from rat acute oral systemic toxicity tests, including limit tests, ranges/confidence intervals, and discrete LD50 values. The full data set included 21,200 LD50 entries for 15,688 substances. […] Data were reviewed to ensure that LD50 values with obvious errors in the extracted data such as unit conversion errors (e.g., comma and decimal separator misplacements) were either fixed or removed. After this review, 16,209 LD50 values remained. Many of the chemicals represented had multiple LD50 entries, requiring that a single representative value per Chemical Abstracts Service Registry Number (CASRN) identifier be defined to facilitate modeling efforts. Based on ATWG feedback and to define the representative LD50 as a protective value while accounting for the distribution across multiple LD50s, the median of the lowest quartile was computed using only discrete LD50 values (omitting limit test data and range and confidence interval data). A detailed summary of the data compilation is available online on the NICEATM webpage dedicated to the collaborative modeling project (NTP 2020).
[…][…] For categorical designations, limit test and range/confidence interval LD50 data were integrated wherever possible. As such, the number of chemicals with end point values/calls varies across the modeling end points (Table 3) based on whether chemicals had representative LD50 values and/or other data. If a chemical had both, the representative value was used to determine categorical calls rather than limit test data. Some data were useable only for certain end points and categories depending on the thresholds. For example, ranges that spanned multiple hazard categories were considered only for the binary (very toxic/nontoxic) end points and omitted from rendering a determination for hazard category assignment.
[…]The final data set comprising 11,992 chemicals was split into training and evaluation sets […], respectively. This process was performed semirandomly by ordering chemicals based on the five end points (categorical and continuous LD50 values) and partitioning every fourth record into the evaluation set accordingly. This approach was taken to ensure an equivalent distribution of the LD50 values and the different hazard categories between the training and the evaluation sets without supervised sampling of the chemicals based on structures (Figure 1A). The sources of the chemical structures were also kept equivalent between the two sets, with chemical structures obtained from DSSTox, being the highest quality, representing over 75% of each set (Figure 1B).

Compound	GHS category
CNC(=O)Oc1ccc(N(C)C)c(C)c1	2
CC(C)c1cc(C(C)C)c(N)c(C(C)C)c1N	4
CCC1COC(Cn2cncn2)(c2cc3cc(Cl)cc(Cl)c3o2)O1 (stereo not drawn)	4
CCCC(=O)OC(C)(C)Cc1ccccc1	5
CCCCC(CC)C(=O)OOC(C)(C)C (stereo not drawn)	5
Clc1ccc(C(Cn2ccnc2)OCc2ccc(Sc3ccccc3)cc2)c(Cl)c1 (stereo not drawn)	5
Oc1ccc(C(O)CNCCCCCCNCC(O)c2ccc(O)c(O)c2)cc1O (stereo not drawn)	5
CCCCCCCCCCCCC	5
CC(=O)OC1CCC2CCCCC2C1 (stereo not drawn)	5
N#CC(C(=O)OCC(COC(=O)C(C#N)=C(c1ccccc1)c1ccccc1)(COC(=O)C(C#N)=C(c1ccccc1)c1ccccc1)COC(=O)C(C#N)=C(c1ccccc1)c1ccccc1)=C(c1ccccc1)c1ccccc1	5
CCOC(=O)C(C)(C)Br	5
CCCCCCCOC(C)=O	5
CCCCCCCCCCCCCCCC(=O)OCCCCCCCCCCCCCCCC(C)C	5
CC(c1ccc(O)cc1)(c1ccc(O)cc1)c1ccc(O)cc1	5
CCC(C)(C)c1ccc(OP(=O)(NC)OC)c(Cl)c1 (stereo not drawn)	3
CNc1cc(OC)c(C(=O)N[C@H]2CCN(Cc3ccccc3)[C@H]2C)cc1Cl	4
CCCCCCCCCCCCCCOC(=O)Cl	5
CCOC(=O)C(C)O (stereo not drawn)	5
CC(C)(C)c1cc(Cc2cc(C(C)(C)C)c(O)c(C(C)(C)C)c2)cc(C(C)(C)C)c1O	5
Cc1ccc(O)c(/N=N/c2ccccc2[N+](=O)[O-])c1	5
COc1ccc(C(=O)CC(=O)c2ccc(C(C)(C)C)cc2)cc1	5
COCc1cnc(C2=NC(C)(C(C)C)C(=O)N2)c(C(=O)O)c1 (stereo not drawn)	5
CNc1cnn(-c2cccc(C(F)(F)F)c2)c(=O)c1Cl	5
CCOC(=O)C(=O)Nc1cc(OC)nc(OC)n1	4

Compound	GHS category
O=C1CCCCCCCCCCCCCCO1	5
OC1(c2cccs2)c2ccccc2C2=NCCN21 (stereo not drawn)	4
CCCCOC(=O)[C@@H](C)Oc1ccc(Oc2ccc(C#N)cc2F)cc1	5
CCCc1nc(C)c2c(=O)nc(-c3cc(S(=O)(=O)N4CCN(CC)CC4)ccc3OCC)[nH]n12	5
CCCNC(=O)c1cnc2ccccn2c1=O	3
CNC(=O)Oc1cccc2c1OC1(CCCCC1)O2	3
CCCCCCCC/C=C\CCCCCCCC(=O)N(CCCC)CCCC	5
Cc1ccc(Cl)cc1N=Nc1c(O)c(C(=O)Nc2cc(C)c(NC(=O)c3cc4ccccc4c(N=Nc4cc(Cl)ccc4C)c3O)cc2C)cc2ccccc12	5
Nc1nccnc1C(=O)O	5
O=C(Nc1ccc(F)cc1F)c1cccnc1Oc1cccc(C(F)(F)F)c1	5
CCC/C=C/COC(C)=O	5
COC[C@@H]1CO[C@@](Cn2ccnc2)(c2cc3cc(Cl)cc(Cl)c3o2)O1	4
CCOC(=O)c1cnn(-c2cccc(C)c2)c1C#N	4
CCCC(=O)c1ccc2[nH]c(=O)oc2c1	5
NC(=O)N=NC(N)=O	5
CCC(=O)OC/C=C(\C)CCC=C(C)C	5
CCCCCCCCCCCCCCCc1cccc(OC(=O)c2ccccc2OC(N)=O)c1	5
CC1CCC(C(C)C)C(OC(=O)C2OC(O)CS2)C1 (stereo not drawn)	5
O=C(c1ccc(OC2CCOC2)cc1)c1cc(I)ccc1Cl (stereo not drawn)	4
O=C1c2c(Cl)c(Cl)c(Cl)c(Cl)c2C2=Nc3cccc4cccc(c34)N12	5
CN1CC(c2ccon2)CC2c3cccc4[nH]cc(c34)CC21 (stereo not drawn)	4
CCOC(=O)[C@H](CCc1ccccc1)N[C@H]1CCCN2CCC[C@@H](C(=O)O)N2C1=O	5
O=C1CCCCCN1C(=O)NCCCCCCNC(=O)N1CCCCCC1=O	5
CCCCCCCCCCCCCCCCN(C)C	5
